{
  "source": "patent US20230374148A1",
  "about": "“BINDING MOLECULES THAT MULTIMERISE CD45” (UCB BIOPHARMA SRL, priority 2020, published 2023)",
  "molecules": {"B1": {"name": "4133 rabbit Fab (Fab, V domains shown)", "VH": "QEQLVESGGGLVQPEGSLTLTCTASGFSFSGNYYMCWVRQAPGKGLEWIGCLYTGSSGSTYYASWAKGRFTISKTSSTTVTLQMTSLTAADTATYFCARDLGYEIDGYGGLWGQGTLVTVSS", "VL": "AQVLTQTPSPVSAVVGGTVSISCQASQSVYNNNNLSWYQQKPGQPPKLLIYDASKLASGVPSRFKGSGSGTQFTLTISGVQCDDAATYYCLGGYYSSGWYFAFGGGTKVVVKR"}, "B2": {"name": "6294 mouse Fab (Fab, V domains shown)", "VH": "EVQLVESGAELARPGASVKMSCKASGYTFTSYTMHWVKQRPGQGLEWIGYINPSSGYTEYNQKFKDKTTLTADKSSSTAYLQLSSLTSEDSAVYYCARVGDGFYPSWLAYWGQGTLVTVSS", "VL": "DIQMTQSPKFLLVSAGDRVTITCKASQSVRNDVAWYQQKPGQSPKLLIFYASKRYTGVPDRFTGSGYGTDFTFTISTVQAEDLAVYFCQQDYSSPTTFGGGTKLEIK"}},
  "key": {"[1]": {"tested_on": "SU-DHL-5", "assay": "Apoptosis of cell lines: SU-DHL-5", "format": "cell-based", "settings": "SU-DHL-5, 21 hrs, 500 nM", "excerpt": "(§1) The following cell lines representing various leukaemia's and lymphoma's, as classified by ATCC (www.atcc.org/), were used: Jurkat—acute T-cell leukaemia; CCRF-SB—B-cell acute lymphoblastic leukaemia; MC116—B-cell undifferentiated lymphoma; Raji, Ramos—Burkitt lymphoma (rare form of B-cell non-Hodgkin lymphoma); SU-DHL-4, SU-DHL-5, SU-DHL-8, NU-DUL-1, OCI-Ly3—Diffuse large B-cell lymphoma; THP-1—acute monocytic leukaemia; and Dakiki—B cell nasopharyngeal carcinoma.\n(§2) Prior to an assay being performed, 1 vial of each of the above cell lines was thawed in a 37° C. water bath and then added to 20 ml complete media (RPMI 1640+2 mM GlutaMAX+1% Pen/Strep, all previous supplied by Invitrogen, +10% Fetal Bovine Serum (FBS), Sigma Aldrich). Cells were spun (500 g, 5 min, at RT) and re-suspended in 20 ml complete media to wash and spun again. Cells were resuspended in 10 ml complete media and then counted using a ChemoMetec NucleoCounter NC-3000. 6×10^6 cells of each cell line were spun (500 g, 5 min, at RT) and re-suspended in 4.8 ml complete media. 1×10^5 cells in 80 μl were then added to each well of a Corning Costar 96-well, cell culture treated, U-shaped-bottom microplate (cat no. 07-200-95). The plate was rested in a 37° C., 5% CO2 incubator for 2 hrs\n(§3) Stocks of 4133-6294 BYbe and NegCtrl BYbe at 2500 nM in complete media were prepared. In a Greiner 96-well non-binding microplate, both reagents were serially diluted in complete media 1 in 5, seven times to produce to form an 8-point dose curve. […] (final well concentrations 500-0.0064 nM) was added to the cells. Each concentration was produced in triplicate. Camptothecin (cat no. C9911-100MG, Sigma Aldrich) and Staurosporine (cat no. 56942-200UL, Sigma Aldrich) were added as positive controls of apoptosis. Both were diluted in complete media and added to the well to produce a final concentration of 5 μM. Additional positive controls included anti-thymocyte globulin (ATG, indicated by FDA for use in conditioning regimens), Rituximab (anti-CD20, indicated by FDA for Non-Hodgkin Lymphoma and Chronic Lymphocytic Leukaemia) and Campath (anti-CD52, indicated by FDA for B-cell Chronic Lymphocytic Leukaemia). Anti-thymocyte globulin, Rituximab and Campath were added to the wells to produce final concentrations of 200 μg/ml, 500 nM and 200 μg/ml, respectively. […]\n(§4) Following the incubation, the plates were spun at 500 g, 5 min, RT, the buffer was aspirated with a BioTek ELx405 microplate washer, and the cells were re-suspended in FACS buffer (PBS+1% bovine serum albumin (BSA)+0.1% NaN3+2 mM EDTA, Sigma Aldrich) to wash and then re-spun and buffer was aspirated to leave the cells in 20 μl residual media. […] Cells were analysed using the Bio-Rad ZE5 Cell Analyzer. […]"}, "[2]": {"tested_on": "OCI-Ly3", "assay": "Apoptosis of cell lines: OCI-Ly3", "format": "cell-based", "settings": "OCI-Ly3, 21 hrs, 500 nM", "excerpt": "as §1, §2, §3, §4"}, "[3]": {"tested_on": "Jurkat", "assay": "Apoptosis of cell lines: Jurkat", "format": "cell-based", "settings": "21 hrs, 500 nM", "excerpt": "as §1, §2, §3, §4"}, "[4]": {"tested_on": "SU-DHL-4", "assay": "Apoptosis of cell lines: SU-DHL-4", "format": "cell-based", "settings": "SU-DHL-4, 21 hrs, 500 nM", "excerpt": "as §1, §2, §3, §4"}, "[5]": {"tested_on": "CCRF-SB", "assay": "Apoptosis of cell lines: CCRF-SB", "format": "cell-based", "settings": "21 hrs, 500 nM", "excerpt": "as §1, §2, §3, §4"}, "[6]": {"tested_on": "Dakiki", "assay": "Apoptosis of cell lines: Dakiki", "format": "cell-based", "settings": "21 hrs, 500 nM", "excerpt": "as §1, §2, §3, §4"}, "[7]": {"tested_on": "SU-DHL-8", "assay": "Apoptosis of cell lines: SU-DHL-8", "format": "cell-based", "settings": "SU-DHL-8, 21 hrs, 500 nM", "excerpt": "as §1, §2, §3, §4"}, "[8]": {"tested_on": "Raji", "assay": "Apoptosis of cell lines: Raji", "format": "cell-based", "settings": "21 hrs, 500 nM", "excerpt": "as §1, §2, §3, §4"}, "[9]": {"tested_on": "NU-DUL-1", "assay": "Apoptosis of cell lines: NU-DUL-1", "format": "cell-based", "settings": "NU-DUL-1, 21 hrs, 500 nM", "excerpt": "as §1, §2, §3, §4"}, "[10]": {"tested_on": "Ramos", "assay": "Apoptosis of cell lines: Ramos", "format": "cell-based", "settings": "21 hrs, 500 nM", "excerpt": "as §1, §2, §3, §4"}, "[11]": {"tested_on": "THP-1", "assay": "Apoptosis of cell lines: THP-1", "format": "cell-based", "settings": "THP-1, 21 hrs, 500 nM", "excerpt": "as §1, §2, §3, §4"}, "[12]": {"tested_on": "MC116", "assay": "Apoptosis of cell lines: MC116", "format": "cell-based", "settings": "MC116, 21 hrs, 500 nM", "excerpt": "as §1, §2, §3, §4"}, "[13]": {"biological_target": "T1, CD45 domains 1-4 of the extracellular domain (UniProtKB P08575, residues 225-573) with C-terminal TEV cleavage site and 10-His tag (human)", "assay": "SPR, Biacore 3000, 25 C; Fab captured by anti-rabbit F(ab)2, CD45 D1-D4 titrated 50 nM to 0.05 nM"}, "[14]": {"biological_target": "T1, CD45 domains 1-4 of the extracellular domain", "assay": "SPR, Biacore 3000, 25 C; Fab captured by anti-mouse F(ab)2, CD45 D1-D4 titrated 50 nM to 0.05 nM"}},
  "data": [
    {"molecule": "Rituximab: anti-CD20, indicated by FDA for Non-Hodgkin Lymphoma and Chronic Lymphocytic Leukaemia; positive control [reference compound]", "values": [
      {"measurement": "Rituximab mean (%) cell reduction", "setting": "[1]", "value": 61.26, "unit": "%"},
      {"measurement": "Rituximab mean (%) cell reduction", "setting": "[2]", "value": 19.05, "unit": "%"},
      {"measurement": "Rituximab mean (%) cell reduction", "setting": "[3]", "value": 6.52, "unit": "%"},
      {"measurement": "Rituximab mean (%) cell reduction", "setting": "[4]", "value": 79.76, "unit": "%"},
      {"measurement": "Rituximab mean (%) cell reduction", "setting": "[5]", "value": 59.87, "unit": "%"},
      {"measurement": "Rituximab mean (%) cell reduction", "setting": "[6]", "value": 58.55, "unit": "%"},
      {"measurement": "Rituximab mean (%) cell reduction", "setting": "[7]", "value": 15.25, "unit": "%"},
      {"measurement": "Rituximab mean (%) cell reduction", "setting": "[8]", "value": 87.89, "unit": "%"},
      {"measurement": "Rituximab mean (%) cell reduction", "setting": "[9]", "value": 87.04, "unit": "%"},
      {"measurement": "Rituximab mean (%) cell reduction", "setting": "[10]", "value": 91.05, "unit": "%"},
      {"measurement": "Rituximab mean (%) cell reduction", "setting": "[11]", "value": 23.12, "unit": "%"},
      {"measurement": "Rituximab mean (%) cell reduction", "setting": "[12]", "value": 98.13, "unit": "%"}
    ]},
    {"molecule": "B1", "values": [
      {"measurement": "Kd", "setting": "[13]", "value": 61, "unit": "nM"},
      {"measurement": "koff", "setting": "[13]", "value": 0.035, "unit": "s⁻¹"},
      {"measurement": "kon", "setting": "[13]", "value": 570000, "unit": "M⁻¹ s⁻¹"}
    ]},
    {"molecule": "B2", "values": [
      {"measurement": "Kd", "setting": "[14]", "value": 0.085, "unit": "nM"},
      {"measurement": "koff", "setting": "[14]", "value": 0.00022, "unit": "s⁻¹"},
      {"measurement": "kon", "setting": "[14]", "value": "2.6e+06", "unit": "M⁻¹ s⁻¹"}
    ]}
  ]
}
